This note sets out measurements from ChEMBL document CHEMBL3745631, “Discovery of highly potent and selective Bruton's tyrosine kinase inhibitors: Pyridazinone analogs with improved metabolic stability” (Bioorg Med Chem Lett, 2016).

SMILES strings stand for the structures.

The target of data set [1] is Proto-oncogene tyrosine-protein kinase receptor Ret (Homo sapiens) (UniProt P07949). Description: Inhibition of Ret (unknown origin) at 1 uM.
Data set [2] addresses Serine/threonine-protein kinase DCLK2 (Homo sapiens) (UniProt Q8N568). In words: Inhibition of DCAMKL2 (unknown origin) at 1 uM.
Data set [3] addresses Serine/threonine-protein kinase 17A (Homo sapiens) (UniProt Q9UEE5). Description: Inhibition of DRAK1 (unknown origin) at 1 uM.
In data set [4] the target is Calcium/calmodulin-dependent protein kinase kinase 2 (Homo sapiens) (UniProt Q96RR4). In words: Inhibition of CAMKK2 (unknown origin) at 1 uM.
Calcium/calmodulin-dependent protein kinase kinase 2 (Homo sapiens), sequence (Q96RR4 2-588 limits assumed): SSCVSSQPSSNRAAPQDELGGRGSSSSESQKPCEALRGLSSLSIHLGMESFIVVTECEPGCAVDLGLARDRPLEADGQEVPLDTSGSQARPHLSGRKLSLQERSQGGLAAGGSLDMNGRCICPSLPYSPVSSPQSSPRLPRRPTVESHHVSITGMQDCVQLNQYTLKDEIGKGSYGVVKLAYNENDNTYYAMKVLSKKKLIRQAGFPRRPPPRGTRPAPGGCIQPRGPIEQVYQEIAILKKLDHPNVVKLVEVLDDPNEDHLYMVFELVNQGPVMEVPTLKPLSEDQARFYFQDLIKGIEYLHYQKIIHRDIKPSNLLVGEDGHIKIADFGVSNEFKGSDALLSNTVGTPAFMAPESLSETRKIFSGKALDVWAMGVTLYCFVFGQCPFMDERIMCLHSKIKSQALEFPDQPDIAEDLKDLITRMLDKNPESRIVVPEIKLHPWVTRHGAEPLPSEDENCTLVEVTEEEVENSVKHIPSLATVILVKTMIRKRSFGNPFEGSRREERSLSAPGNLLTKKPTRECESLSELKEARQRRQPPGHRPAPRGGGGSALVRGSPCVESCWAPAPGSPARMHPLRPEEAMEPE
Data set [5] deals with Serine/threonine-protein kinase BRSK1 (Homo sapiens) (UniProt Q8TDC3). In words: Inhibition of BrSK1 (unknown origin) at 1 uM.
Serine/threonine-protein kinase BRSK1 (Homo sapiens), sequence (Q8TDC3 whole entry): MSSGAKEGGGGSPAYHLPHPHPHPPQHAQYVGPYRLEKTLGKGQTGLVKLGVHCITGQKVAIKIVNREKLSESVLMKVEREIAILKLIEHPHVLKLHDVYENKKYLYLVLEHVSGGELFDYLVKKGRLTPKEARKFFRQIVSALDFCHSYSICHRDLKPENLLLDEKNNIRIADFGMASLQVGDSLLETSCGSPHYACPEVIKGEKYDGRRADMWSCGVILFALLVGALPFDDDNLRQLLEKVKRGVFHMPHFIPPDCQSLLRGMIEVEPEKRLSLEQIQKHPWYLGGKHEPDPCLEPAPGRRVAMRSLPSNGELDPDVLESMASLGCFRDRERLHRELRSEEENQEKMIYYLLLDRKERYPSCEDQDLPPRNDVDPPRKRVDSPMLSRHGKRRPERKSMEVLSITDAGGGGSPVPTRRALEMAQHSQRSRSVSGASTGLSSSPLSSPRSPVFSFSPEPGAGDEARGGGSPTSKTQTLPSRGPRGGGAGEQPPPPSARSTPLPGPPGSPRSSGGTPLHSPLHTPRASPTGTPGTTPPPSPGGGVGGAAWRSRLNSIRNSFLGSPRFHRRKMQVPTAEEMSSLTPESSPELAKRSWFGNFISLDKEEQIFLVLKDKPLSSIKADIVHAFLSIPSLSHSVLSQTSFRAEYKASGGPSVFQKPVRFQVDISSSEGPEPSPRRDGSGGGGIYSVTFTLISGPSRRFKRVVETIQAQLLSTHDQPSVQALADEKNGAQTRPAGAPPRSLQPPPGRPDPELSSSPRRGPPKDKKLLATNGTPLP
Data set [6] has as its target Serine/threonine-protein kinase Chk2 (Homo sapiens) (UniProt O96017). Description: Inhibition of CHK2 (unknown origin) at 1 uM.
Another data set addresses hERG (KCNH2) (Homo sapiens, UniProt Q12809). In words: Inhibition of human ERG at 10 uM.
Data set [7] has as its target Protein kinase C alpha type (Homo sapiens) (UniProt P17252). In words: Inhibition of PKC alpha (unknown origin) at 1 uM.
For data set [8], the target named is Serine/threonine-protein kinase 3 (Homo sapiens) (UniProt Q13188). Description: Inhibition of MST2 (unknown origin) at 1 uM.
Serine/threonine-protein kinase 3 (Homo sapiens), sequence (Q13188 whole entry): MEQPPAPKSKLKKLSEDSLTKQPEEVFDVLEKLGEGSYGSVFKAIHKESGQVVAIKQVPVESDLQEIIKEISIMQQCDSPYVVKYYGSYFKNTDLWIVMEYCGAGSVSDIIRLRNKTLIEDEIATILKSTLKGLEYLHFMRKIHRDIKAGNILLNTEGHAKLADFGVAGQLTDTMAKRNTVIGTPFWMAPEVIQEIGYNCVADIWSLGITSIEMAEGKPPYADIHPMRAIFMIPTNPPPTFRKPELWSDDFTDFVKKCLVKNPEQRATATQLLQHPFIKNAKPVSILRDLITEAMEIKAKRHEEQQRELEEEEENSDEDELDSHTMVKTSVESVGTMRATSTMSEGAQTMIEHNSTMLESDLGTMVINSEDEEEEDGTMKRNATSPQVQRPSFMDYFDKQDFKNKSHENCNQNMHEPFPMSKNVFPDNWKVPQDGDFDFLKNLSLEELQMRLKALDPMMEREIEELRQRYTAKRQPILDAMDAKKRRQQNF
Data set [9] has as its target 5'-AMP-activated protein kinase catalytic subunit alpha-1 (Homo sapiens) (UniProt Q13131). In words: Inhibition of PRKAA1 (unknown origin) at 1 uM.

Serine/threonine-protein kinase DCLK2 (Homo sapiens), sequence (Q8N568 whole entry): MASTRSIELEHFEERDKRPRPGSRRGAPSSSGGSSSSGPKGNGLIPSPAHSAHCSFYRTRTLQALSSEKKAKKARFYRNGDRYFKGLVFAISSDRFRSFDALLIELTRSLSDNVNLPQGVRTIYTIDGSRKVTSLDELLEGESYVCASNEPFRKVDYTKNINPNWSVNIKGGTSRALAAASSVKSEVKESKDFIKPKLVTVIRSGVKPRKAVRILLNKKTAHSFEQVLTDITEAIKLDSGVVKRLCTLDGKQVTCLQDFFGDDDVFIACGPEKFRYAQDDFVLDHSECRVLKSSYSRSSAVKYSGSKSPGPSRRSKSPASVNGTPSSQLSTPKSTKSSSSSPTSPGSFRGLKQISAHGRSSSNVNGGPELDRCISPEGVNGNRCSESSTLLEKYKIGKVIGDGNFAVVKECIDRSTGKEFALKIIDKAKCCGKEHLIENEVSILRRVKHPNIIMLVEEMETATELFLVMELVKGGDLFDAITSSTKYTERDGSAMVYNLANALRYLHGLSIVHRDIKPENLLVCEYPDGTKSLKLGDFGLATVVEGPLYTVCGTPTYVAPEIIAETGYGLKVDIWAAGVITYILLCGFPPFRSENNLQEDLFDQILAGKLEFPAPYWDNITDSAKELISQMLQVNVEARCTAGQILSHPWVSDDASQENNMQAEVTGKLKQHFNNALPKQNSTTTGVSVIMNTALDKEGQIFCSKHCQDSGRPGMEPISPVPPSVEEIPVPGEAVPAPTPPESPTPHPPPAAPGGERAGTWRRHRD
5'-AMP-activated protein kinase catalytic subunit alpha-1 (Homo sapiens), sequence (Q13131 whole entry, looked up): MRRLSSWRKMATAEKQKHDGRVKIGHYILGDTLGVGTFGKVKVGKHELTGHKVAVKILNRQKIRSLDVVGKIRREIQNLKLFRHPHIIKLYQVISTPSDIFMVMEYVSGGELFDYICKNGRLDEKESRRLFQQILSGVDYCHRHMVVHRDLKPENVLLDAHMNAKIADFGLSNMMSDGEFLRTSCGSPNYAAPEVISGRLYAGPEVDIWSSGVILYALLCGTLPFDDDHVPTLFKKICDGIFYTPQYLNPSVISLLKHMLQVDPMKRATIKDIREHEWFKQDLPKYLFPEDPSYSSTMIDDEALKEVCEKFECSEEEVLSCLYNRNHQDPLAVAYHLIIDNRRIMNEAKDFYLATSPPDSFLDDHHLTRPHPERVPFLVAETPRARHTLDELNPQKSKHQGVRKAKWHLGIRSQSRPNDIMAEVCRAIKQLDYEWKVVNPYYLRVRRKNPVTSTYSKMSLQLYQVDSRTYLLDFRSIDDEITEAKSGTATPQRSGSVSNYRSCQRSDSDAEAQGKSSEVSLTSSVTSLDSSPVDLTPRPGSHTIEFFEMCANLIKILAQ
Serine/threonine-protein kinase Chk2 (Homo sapiens), sequence (O96017 whole entry): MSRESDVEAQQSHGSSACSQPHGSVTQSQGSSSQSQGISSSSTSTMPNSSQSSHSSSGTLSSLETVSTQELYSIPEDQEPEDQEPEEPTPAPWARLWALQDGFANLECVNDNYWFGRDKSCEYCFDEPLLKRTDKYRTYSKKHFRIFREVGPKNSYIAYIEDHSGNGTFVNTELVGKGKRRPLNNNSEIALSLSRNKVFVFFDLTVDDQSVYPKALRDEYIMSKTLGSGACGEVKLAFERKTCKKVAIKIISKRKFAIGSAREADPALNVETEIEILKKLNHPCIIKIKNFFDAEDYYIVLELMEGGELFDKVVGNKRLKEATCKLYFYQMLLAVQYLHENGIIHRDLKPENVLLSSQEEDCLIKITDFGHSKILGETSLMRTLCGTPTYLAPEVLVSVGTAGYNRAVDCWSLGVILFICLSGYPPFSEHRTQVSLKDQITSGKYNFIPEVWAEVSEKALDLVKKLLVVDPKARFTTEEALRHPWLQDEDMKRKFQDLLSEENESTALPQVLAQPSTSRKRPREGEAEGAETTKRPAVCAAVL
hERG (KCNH2), sequence (Q12809 whole entry): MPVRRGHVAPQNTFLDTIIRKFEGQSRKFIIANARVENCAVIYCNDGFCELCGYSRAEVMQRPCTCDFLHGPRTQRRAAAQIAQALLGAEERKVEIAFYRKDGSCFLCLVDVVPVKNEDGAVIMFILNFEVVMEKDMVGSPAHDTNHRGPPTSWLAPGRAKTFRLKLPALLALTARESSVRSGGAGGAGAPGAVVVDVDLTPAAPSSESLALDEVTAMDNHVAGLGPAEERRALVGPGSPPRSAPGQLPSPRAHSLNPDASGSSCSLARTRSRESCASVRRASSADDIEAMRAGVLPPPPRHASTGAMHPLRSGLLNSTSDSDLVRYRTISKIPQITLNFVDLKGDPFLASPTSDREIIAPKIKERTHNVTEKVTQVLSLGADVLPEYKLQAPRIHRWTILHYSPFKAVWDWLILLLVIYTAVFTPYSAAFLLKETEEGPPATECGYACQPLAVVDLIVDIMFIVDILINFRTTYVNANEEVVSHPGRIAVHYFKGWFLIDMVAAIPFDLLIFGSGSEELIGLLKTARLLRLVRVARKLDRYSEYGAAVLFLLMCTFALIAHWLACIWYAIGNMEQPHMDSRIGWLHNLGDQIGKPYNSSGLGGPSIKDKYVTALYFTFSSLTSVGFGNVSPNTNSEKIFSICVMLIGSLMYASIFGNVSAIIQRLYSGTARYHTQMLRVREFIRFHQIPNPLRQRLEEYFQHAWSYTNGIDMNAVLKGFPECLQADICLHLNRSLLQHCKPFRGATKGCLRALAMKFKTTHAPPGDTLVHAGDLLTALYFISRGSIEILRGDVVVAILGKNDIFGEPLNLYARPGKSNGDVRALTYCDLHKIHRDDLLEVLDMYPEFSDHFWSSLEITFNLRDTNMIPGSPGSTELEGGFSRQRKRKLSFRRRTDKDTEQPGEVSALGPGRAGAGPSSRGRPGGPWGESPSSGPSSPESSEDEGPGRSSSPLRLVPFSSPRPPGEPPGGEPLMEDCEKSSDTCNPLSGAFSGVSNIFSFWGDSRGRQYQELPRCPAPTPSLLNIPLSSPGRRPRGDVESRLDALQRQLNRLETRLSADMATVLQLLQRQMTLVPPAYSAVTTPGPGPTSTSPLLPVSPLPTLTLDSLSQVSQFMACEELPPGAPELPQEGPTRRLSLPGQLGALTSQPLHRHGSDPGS

Turning to `Cc1c(-c2cc(Nc3cc4n(n3)CCN(C)C4)c(=O)[nH]n2)ccc(F)c1NC(=O)c1cc2ccccc2s1`, the inhibition in data set [1] is 14.9%; in [2], -1.2%; in data set [3] it was 7.6%; in data set [4], 8.2%; in [5] it was 0.8%; in [6], -3.8%. The inhibition in data set [7] is -2.1%; in data set [8] it was -4.1%; in data set [9] it was -2.2%. At hERG (KCNH2), the inhibition at 10 µM was 27%.
